Measured values as given in patent US20070225301A1, “TREATMENT OF ACNE AND OTHER DISEASES” (Astion Inflammation ApS, priority 2006, published 2007).
Where a name gives a salt, the structure may show the parent alone.

What was measured:
acne vulgaris = experiment: Case with treatment of acne vulgaris; type: in vivo, human; conditions: person; for Reddened inflamed area surrounding the lesion: topical treatment of acne vulgaris
Description: A person was suffering from acne vulgaris characterised by comedones and some inflammatory lesions. They had previously regularly used a 5% benzoyl peroxide cream to treat the condition. During a flare up of the condition they applied a 5.0% aqueous solution of Pemirolast (potassium salt) once daily for four weeks to the areas affected. […] The treatment was followed and assessed by a physician.

[1] = tested on: arachidonic acid-induced ear inflammation; experiment: Arachidonic acid-induced ear-inflammation test in mice; type: in vivo, female BALB/cA mice; conditions: intraperitoneal, 30 minutes before arachidonic acid; ear oedema one hour after
Procedure: The anti-inflammatory potential of Pemirolast can be tested in “arachidonic acid-induced ear-inflammation test in mice”, a commonly employed method for screening and evaluation of antiinflammatory drugs. Dexamethasone was employed as reference compound.
The study can be performed in female BALB/cA mice from M & B A/S, DK-8680 Ry. The test substances (various concentration of Pemirolast dissolved in aqueous solutions) and the reference compound are administered intraperitoneally in volumes of 20 ml per kg body weight 30 minutes before application of arachidonic acid to the ear. All groups are then treated with 20 μl arachidonic acid, 100 mg/ml in acetone, on the right ear.
One hour after the application of arachidonic acid the mice are sacrificed, the ears cut from the tip with a punch biopsy knife (8 mm diameter) and weighed. Mean weights and standard deviations are calculated. Relative ear oedema is assessed as the weight difference between right and left ear of each mouse expressed as percent of the left ear. Percent inhibition of the relative ear oedema compared with the vehicle treated groups is calculated for the test substance and reference compound treated groups. […]

IL-1α = experiment: Cytokine production, LPS induced human PBMC; type: cell-based; conditions: stated in words only, no value
Procedure: The inhibition of Pemirolast on cytokine production was determined using the assay “LPS induced human PBMC”.

PPAR-γ = biological target: T1, PPAR-γ (Homo sapiens, UniProt P37231); experiment: Gal-4-PPAR luciferase reporter assay in HEK 293-T (Indigo Biosciences); type: cell-based; conditions: % inhibition 50, 14 hours treatment, read-out: Concentration of Pemirolast giving 50 % inhibition of PPAR-γ
T1 sequence (P37231 238-505 limits assumed): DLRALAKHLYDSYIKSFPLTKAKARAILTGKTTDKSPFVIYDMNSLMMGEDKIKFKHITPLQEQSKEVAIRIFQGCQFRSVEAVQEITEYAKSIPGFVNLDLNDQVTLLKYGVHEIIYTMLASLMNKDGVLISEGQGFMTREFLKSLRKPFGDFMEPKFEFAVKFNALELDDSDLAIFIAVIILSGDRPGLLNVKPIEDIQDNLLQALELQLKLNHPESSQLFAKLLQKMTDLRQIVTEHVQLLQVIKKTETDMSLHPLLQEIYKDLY
Procedure: (§1) The inhibitory effect of Pemirolast on PPAR was determined by Indigo Biosciences. The following assay procedure was used: Compounds were diluted in DMSO to a final concentration of […] and serial dilutions prepared. The cell line HEK 293-T was transiently transfected with Gal-4-human PPARα, γ, Gal-4-luciferase and pRL (renilla, to correct for efficiency). The cells were treated with Pemirolast or with positive controls (ciprofibrate, or rosiglitazone) for 14 hours. The cells were lysed and luciferase and renilla activity were determined.

PPAR-α = biological target: T2, PPAR-α (Homo sapiens, UniProt Q07869); experiment: as above; type: cell-based; conditions: % inhibition 50, 14 hours treatment, read-out: Concentration of Pemirolast giving 50 % inhibition of PPAR-α
T2 sequence (Q07869 200-468 limits assumed): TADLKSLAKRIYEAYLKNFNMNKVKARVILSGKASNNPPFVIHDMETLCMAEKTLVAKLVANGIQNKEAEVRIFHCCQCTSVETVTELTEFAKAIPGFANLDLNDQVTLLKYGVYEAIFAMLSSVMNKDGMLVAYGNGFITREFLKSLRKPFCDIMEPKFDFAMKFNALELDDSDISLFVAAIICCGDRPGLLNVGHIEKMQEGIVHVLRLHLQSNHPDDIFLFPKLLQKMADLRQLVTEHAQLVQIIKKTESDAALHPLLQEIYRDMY
Procedure: as §1

[2] = 5.0% aqueous solution once daily for four weeks, topical

Row | Structure (SMILES) | Inflammatory acne lesions after treatment (acne vulgaris; [2]) | Scarring after treatment (acne vulgaris; [2]) | Reddened inflamed area surrounding the lesion (acne vulgaris) | Effect on inflammatory reaction in the arachidonic acid treated ear [1] | Inhibition of IL-1α (IL-1α) | IC50 (PPAR-γ) [µM] | IC50 (PPAR-α) [µM]
1 | Cc1cccn2c(=O)c(-c3nnn[nH]3)cnc12 [Pemirolast (potassium salt)] | completely recessed | without any noticeable scarring | also recessed | – | – | – | –
2 | Cc1cccn2c(=O)c(-c3nnn[nH]3)cnc12 [Pemirolast, 9-methyl-3-(1H-tetrazol-5-yl)-4H-pyrido[1,2-a]pyrimidin-4-one] | – | – | – | significantly prevented the inflammatory reaction | inhibits | 20 | 17
3 | O=C(OOC(=O)c1ccccc1)c1ccccc1 [benzoyl peroxide] | – | – | did not remove the reddened inflamed area | – | – | – | –
